Data as given in patent publication US5420140A, “Difluorinated quinolones useful for treating bacterial infections” (Bouchara S.A., priority 1991, dated 1995).
In brackets after ≈: the same amount, converted by molar mass. Where two headings read alike, the source gives them in different places.

Experiments:
[1] = system: Streptococcus faecalis ATCC 8043; assay: Determination of MIC and MBC by microdilution method, Streptococcus faecalis ATCC 8043; type: cell-based; conditions: Enterococcus faecalis; for MIC: read-out: Minimal inhibitory concentration (MIC)
Method: (§1) The compound have been tested towards 7 reference strains:
Streptococcus faecalis ATCC 8043
(§2) The preparation of these mother liquors has been performed and vary depending on the molecules as a function of the solubility criterions. Inoculation has been done by adding in each will, 10 μl of a dilution in saline of 18 hours old broth in a brain-heart broth, such as each well contains about 10^6 bacterias/ml. […]

[2] = system: Staphylococcus aureus ATCC 25923; assay: Determination of MIC and MBC by microdilution method, Staphylococcus aureus ATCC 25923; type: cell-based; conditions: Staphylococcus aureus; for MIC: ATCC25923, 18 h, read-out: Minimal inhibitory concentration (MIC)
Method: as §1
Staphylococcus aureus ATCC 25923
(§3) The determination of minimal inhibitory concentrations (MIC) has been performed using a microdution method (microplates and inoculator Dynatech) in liquid medium (MUELLER-HINTON broth) under a volume of 100 μl and for a range of concentrations from 128 to 0.06 mg/l, prepared from a mother liquor of antibiotics titrating 512 mg/l. The preparation of these mother liquors has been performed and vary depending on the molecules as a function of the solubility criterions. Inoculation has been done by adding in each will, 10 μl of a dilution in saline of 18 hours old broth in a brain-heart broth, such as each well contains about 10^6 bacterias/ml.
(§4) The Minimal Inhibitory Concentrations are read as the first concentration of antibiotic which will not give a growth macroscopically detectable after 18 hours incubating at 37°.

S. aureus CB-951 = assay: Determination of MIC and MBC by microdilution method, S. aureus CB-951; type: cell-based, Staphylococcus aureus; conditions: Staphylococcus aureus; for MIC: CB951, 18 h, read-out: Minimal inhibitory concentration (MIC)
Method: as §1
Staphylococcus aureus CB 951
as §3, §4

[3] = system: Acinetobacter Baumanii ATCC 17904; assay: Determination of MIC and MBC by microdilution method, Acinetobacter; type: cell-based; conditions: Acinetobacter baumannii; for MIC: ATCC17904, 18 h, read-out: Minimal inhibitory concentration (MIC)
Method: The compound have been tested towards 7 reference strains: […]
as §3, §4

[4] = system: Pseudomonas aeruginosa ATCC 22853; assay: Determination of MIC and MBC by microdilution method, Pseudomonas aeruginosa ATCC 22853; type: cell-based; conditions: Pseudomonas aeruginosa; for MIC: ATCC22853, 18 h, read-out: Minimal inhibitory concentration (MIC)
Method: as §1
Pseudomonas aeruginosa ATCC 22853
as §2

[5] = system: Escherichia coli ATCC 25922; assay: Determination of MIC and MBC by microdilution method, Escherichia coli ATCC 25922; type: cell-based; conditions: Escherichia coli, ATCC25922, E. coli ATCC 25922; for MIC: Mueller-Hinton broth, 18 hours at 37°, read-out: Minimal inhibitory concentration (MIC); for MBC: read-out: Minimal bactericidal concentration (MBC)
Method: as §1
Escherichia coli ATCC 25922
as §3, §4

[6] = ATCC8043, S. faecalis ATCC 8043, read-out: Minimal bactericidal concentration (MBC)
[7] = ATCC8043, S. faecalis ATCC 8043, Mueller-Hinton broth, 18 hours at 37°
[8] = S. aureus ATCC 25923, Mueller-Hinton broth, 18 hours at 37°
[9] = ATCC25923, S. aureus ATCC 25923, read-out: Minimal bactericidal concentration (MBC)
[10] = S. aureus CB-951, methicillino, erythromycinolincomycino, pefloxacino resistant, Mueller-Hinton broth, 18 hours at 37°
[11] = CB951, S. aureus CB-951, methicillino, erythromycinolincomycino, pefloxacino resistant, read-out: Minimal bactericidal concentration (MBC)
[12] = Acinetobacter Baumanii ATCC 17904, Mueller-Hinton broth, 18 hours at 37°
[13] = ATCC17904, Acinetobacter Baumanii ATCC 17904, read-out: Minimal bactericidal concentration (MBC)
[14] = P. aeruginosa ATCC 22853, Mueller-Hinton broth, 18 hours at 37°
[15] = ATCC22853, P. aeruginosa ATCC 22853, read-out: Minimal bactericidal concentration (MBC)

| Structure (SMILES) | MBC [1, 6] [µg/mL] | MIC [1, 7] [µg/mL] | MIC [5] [µg/mL] | MBC [5] [µg/mL] | MIC [2, 8] [µg/mL] | MBC [2, 9] [µg/mL] | MIC (S. aureus CB-951; [10]) [µg/mL] | MBC (S. aureus CB-951; [11]) [µg/mL] | MIC [3, 12] [µg/mL] | MBC [3, 13] [µg/mL] | MIC [4, 14] [µg/mL] | MBC [4, 15] [µg/mL] | other results |
| --- | --- | --- | --- | --- | --- | --- | --- | --- | --- | --- | --- | --- | --- |
| O=C(O)c1cn(C2CC2)c2cc(N3CCNCC3)c(F)cc2c1=O [Ciprofloxacine, reference compound] |  |  |  |  |  |  |  |  |  |  |  |  | MIC ([1]; ATCC8043, 18 h): 0.25 µg/mL (≈ 0.754 µM); MBC ([1]; ATCC8043, read-out: Minimal bactericidal concentration (MBC)): 0.25 µg/mL (≈ 0.754 µM); MIC [2]: 0.25 µg/mL (≈ 0.754 µM); MBC ([2]; ATCC25923, read-out: Minimal bactericidal concentration (MBC)): 0.25 µg/mL (≈ 0.754 µM); MIC (S. aureus CB-951): 4 µg/mL (≈ 12.1 µM); MBC (S. aureus CB-951; CB951, read-out: Minimal bactericidal concentration (MBC)): 4 µg/mL (≈ 12.1 µM); MIC [3]: 0.06 µg/mL (≈ 0.181 µM); MBC ([3]; ATCC17904, read-out: Minimal bactericidal concentration (MBC)): 0.06 µg/mL (≈ 0.181 µM); MIC [4]: 0.12 µg/mL (≈ 0.362 µM); MBC ([4]; ATCC22853, read-out: Minimal bactericidal concentration (MBC)): 0.25 µg/mL (≈ 0.754 µM) |
| CCn1cc(C(=O)O)c(=O)c2cc(F)c(N3CCC(CNC(=O)CCO)CC3)c(F)c21 [Compound 2, 7-(4-(3-hydroxypropionylaminomethyl)piperidinyl-1) 6,8-difluoro 1-ethyl 4-oxo 1,4-dihydroquinoleinyl-3 carboxylic acid] | 4 (≈ 9.14 µM) | 4 (≈ 9.14 µM) | 8 (≈ 18.3 µM) | 8 (≈ 18.3 µM) | 0.5 (≈ 1.14 µM) | 1 (≈ 2.29 µM) | 4 (≈ 9.14 µM) | 4 (≈ 9.14 µM) | 2 (≈ 4.57 µM) | 4 (≈ 9.14 µM) | > 32 | > 32 |  |
| NCC1CCN(c2c(F)cc3c(=O)c(C(=O)O)cn(CCF)c3c2F)CC1 [Compound 3, 7-(4-aminomethylpiperidinyl-1) 6,8-difluoro 1-fluoroethyl 4-oxo 1,4-dihydroquinoleinyl-3 carboxylic acid] | 4 (≈ 10.4 µM) | 2 (≈ 5.22 µM) | 2 (≈ 5.22 µM) | 2 (≈ 5.22 µM) | 0.5 (≈ 1.3 µM) | 1 (≈ 2.61 µM) | 4 (≈ 10.4 µM) | 8 (≈ 20.9 µM) | 2 (≈ 5.22 µM) | 4 (≈ 10.4 µM) | 8 (≈ 20.9 µM) | 16 (≈ 41.7 µM) |  |
| NCC1CCN(c2c(F)cc3c(=O)c(C(=O)O)cn(Cc4ccc(F)cc4)c3c2F)CC1 [Compound 4, 7-(4-aminomethylpiperidinyl-1) 6,8-difluoro 1-(4-fluorobenzyl) 4-oxo 1,4-dihydroquinoleinyl-3 carboxylic acid] | 12 (≈ 26.9 µM) | > 12 | > 12 | > 12 | 12 (≈ 26.9 µM) | 12 (≈ 26.9 µM) | > 12 | 12 (≈ 26.9 µM) | 12 (≈ 26.9 µM) | > 12 | > 12 | > 12 |  |
| NCC1CCN(c2c(F)cc3c(=O)c(C(=O)O)cn(Cc4ccccc4Cl)c3c2F)CC1 [Compound 5, 7-(4-aminomethylpiperidinyl-1) 6,8-difluoro 1-(2-chlorobenzyl) 4-oxo 1,4-dihydroquinoleinyl-3 carboxylic acid] | > 16 | 16 (≈ 34.6 µM) | 4 (≈ 8.66 µM) | 8 (≈ 17.3 µM) | 2 (≈ 4.33 µM) | 4 (≈ 8.66 µM) | > 16 | > 16 | 4 (≈ 8.66 µM) | 8 (≈ 17.3 µM) | > 16 | > 16 |  |
| CCC(=O)NCC1CCN(c2c(F)cc3c(=O)c(C(=O)O)cn(CC)c3c2F)CC1 [Compound 7, 7-[(4-propionylaminomethyl)piperidinyl-1] 6,8-difluoro 1-ethyl 4-oxo 1,4-dihydroquinoleinyl-3 carboxylic acid] | 8 (≈ 19 µM) | 8 (≈ 19 µM) | 8 (≈ 19 µM) | 8 (≈ 19 µM) | 0.5 (≈ 1.19 µM) | 0.51 (≈ 1.21 µM) | 1 (≈ 2.37 µM) | 1 (≈ 2.37 µM) | 0.25 (≈ 0.593 µM) | 0.5 (≈ 1.19 µM) | > 16 | > 16 |  |
| CCC(=O)NCC1CCN(c2c(F)cc3c(=O)c(C(=O)O)cn(CCF)c3c2F)CC1 [Compound 8, 7-[(4-propionylaminomethyl)piperidinyl-1] 6,8-difluoro1-fluoroethyl 4-oxo 1,4-dihydroquinoleinyl-3 carboxylic acid] | > 12 | 6 (≈ 13.7 µM) | 6 (≈ 13.7 µM) | > 12 | 0.15 (≈ 0.341 µM) | 0.3 (≈ 0.683 µM) | 0.3 (≈ 0.683 µM) | 0.7 (≈ 1.59 µM) | 0.3 (≈ 0.683 µM) | 0.7 (≈ 1.59 µM) | > 12 | > 12 |  |
| CCn1cc(C(=O)O)c(=O)c2cc(F)c(N3CCC(CNC(=O)Nc4ccccc4)CC3)c(F)c21 [Compound 10, 7-[(4-Phenylaminocarboxamidomethyl)piperidinyl-1] 6,8-difluoro 1-ethyl 4-oxo 1,4-dihydroquinoleinyl-3 carboxylic acid] | > 25 | 25 (≈ 51.6 µM) | 0.7 (≈ 1.44 µM) | 0.7 (≈ 1.44 µM) | 0.15 (≈ 0.31 µM) | 0.3 (≈ 0.619 µM) | 0.3 (≈ 0.619 µM) | 1.5 (≈ 3.1 µM) | 0.3 (≈ 0.619 µM) | 0.7 (≈ 1.44 µM) | 3 (≈ 6.19 µM) | 6 (≈ 12.4 µM) |  |
| CCn1cc(C(=O)O)c(=O)c2cc(F)c(N3CCC(CNC(=O)Nc4ccc(C)cc4)CC3)c(F)c21 [Compound 12] | 4 (≈ 8.02 µM) | 4 (≈ 8.02 µM) | > 16 | > 16 | 0.06 (≈ 0.12 µM) | 0.06 (≈ 0.12 µM) | 0.25 (≈ 0.501 µM) | 1 (≈ 2.01 µM) | 0.06 (≈ 0.12 µM) | 0.06 (≈ 0.12 µM) | > 16 | > 16 |  |
| CCn1cc(C(=O)O)c(=O)c2cc(F)c(N3CCC(CNC(=O)Nc4cccc(F)c4)CC3)c(F)c21 [Compound 13, 7-[4-(3-fluorophenyl)aminocarbonylaminomethylpiperidinyl-1] 6,8-difluoro 1-ethyl] | > 16 | > 16 | > 16 | > 16 | 0.12 (≈ 0.239 µM) | 0.25 (≈ 0.498 µM) | 0.25 (≈ 0.498 µM) | 0.5 (≈ 0.995 µM) | 0.06 (≈ 0.119 µM) | 0.06 (≈ 0.119 µM) | > 16 | > 16 |  |
| CCn1cc(C(=O)O)c(=O)c2cc(F)c(N3CCC(CNC(=O)Nc4ccc(Cl)c(Cl)c4)CC3)c(F)c21 [Compound 14, 7-[4-(3,4-dichlorophenyl)aminocarbonylaminomethylpiperidinyl-1] 6,8-difluoro 1-ethyl] | > 16 | > 16 | > 16 | > 16 | 2 (≈ 3.61 µM) | 8 (≈ 14.5 µM) | 16 (≈ 28.9 µM) | > 16 | 4 (≈ 7.23 µM) | 8 (≈ 14.5 µM) | > 16 | > 16 |  |
| CCn1cc(C(=O)O)c(=O)c2cc(F)c(N3CCC(CNC(=O)Nc4ccc([N+](=O)[O-])cc4)CC3)c(F)c21 [Compound 17, 7-[4-(4-nitrophenyl)aminocarbonylaminomethylpiperidinyl-1] 6,8-difluoro 1-ethyl] | 8 (≈ 15.1 µM) | 4 (≈ 7.55 µM) | 16 (≈ 30.2 µM) | > 16 | 0.03 (≈ 0.0567 µM) | 0.03 (≈ 0.0567 µM) | 1 (≈ 1.89 µM) | 1 (≈ 1.89 µM) |  |  | > 16 | > 16 |  |
| CCn1cc(C(=O)O)c(=O)c2cc(F)c(N3CCC(CNC(=O)Nc4ccccc4F)CC3)c(F)c21 [Compound 19, 7-[4-(2-fluorophenyl)aminocarbonylaminomethylpiperidinyl-1] 6,8-difluoro 1-ethyl] | 2 (≈ 3.98 µM) | 2 (≈ 3.98 µM) | 8 (≈ 15.9 µM) | 8 (≈ 15.9 µM) |  |  | 0.03 (≈ 0.0597 µM) | 0.06 (≈ 0.119 µM) |  |  | > 32 | > 32 |  |
